# From ChEMBL document CHEMBL1128949, “Novel tricyclic aminoacetyl and sulfonamide inhibitors of Ras farnesyl protein transferase” (Bioorg Med Chem Lett, 1996)
# Target: T1, Protein farnesyltransferase (Homo sapiens, UniProt P49354+P49356)
# Assay: Inhibitory activity against Protein farnesyltransferase (Inactive); call rule not given here
# Assay type: protein-complex assay
row,IC50,Structure (SMILES)
1,Not Active,CCCCCCCCCCS(=O)(=O)N1CCC(=C2c3ccc(Cl)cc3CCc3cccnc32)CC1
2,Not Active,CCCCCCCCCCCS(=O)(=O)N1CCC(=C2c3ccc(Cl)cc3CCc3cccnc32)CC1

# Target: T1, Protein farnesyltransferase
# Assay: Inhibitory activity against protein farnesyltransferase.
# Assay type: protein-complex assay
row,Structure (SMILES),IC50 [µM]
1,CS(=O)(=O)N1CCC(=C2c3ccc(Cl)cc3CCc3cccnc32)CC1,1.9
2,CCCCS(=O)(=O)N1CCC(=C2c3ccc(Cl)cc3CCc3cccnc32)CC1,4.8
3,CC(C)C[C@H](C(=O)N1CCC(=C2c3ccc(Cl)cc3CCc3cccnc32)CC1)N1C(=O)c2ccccc2C1=O,> 10
4,O=C(CC[C@H](C(=O)N1CCC(=C2c3ccc(Cl)cc3CCc3cccnc32)CC1)N1C(=O)c2ccccc2C1=O)Nc1ccccc1,4.8
5,O=C(CN1C(=O)c2ccccc2C1=O)N1CCC(=C2c3ccc(Cl)cc3CCc3cccnc32)CC1,0.66
6,O=S(=O)(Cc1ccccc1)N1CCC(=C2c3ccc(Cl)cc3CCc3cccnc32)CC1,1
7,CCCCCCCCS(=O)(=O)N1CCC(=C2c3ccc(Cl)cc3CCc3cccnc32)CC1,> 12
8,O=C(NCC(=O)N1CCC(=C2c3ccc(Cl)cc3CCc3cccnc32)CC1)OCc1ccccc1,8.5
9,CCS(=O)(=O)N1CCC(=C2c3ccc(Cl)cc3CCc3cccnc32)CC1,5.2
10,O=C([C@@H](Cc1c[nH]cn1)N1C(=O)c2ccccc2C1=O)N1CCC(=C2c3ccc(Cl)cc3CCc3cccnc32)CC1,3.6
11,O=S(=O)(c1ccc2ccccc2c1)N1CCC(=C2c3ccc(Cl)cc3CCc3cccnc32)CC1,> 12
12,O=C(CNCc1ccccc1)N1CCC(=C2c3ccc(Cl)cc3CCc3cccnc32)CC1,9.6
13,COc1ccc(CSC[C@@H](NC(=O)OC(C)(C)C)C(=O)N2CCC(=C3c4ccc(Cl)cc4CCc4cccnc43)CC2)cc1,3.05
14,C[C@H](C(=O)N1CCC(=C2c3ccc(Cl)cc3CCc3cccnc32)CC1)N1C(=O)c2ccccc2C1=O,4.6

# Now from value to compound:
row,IC50 [µM],Structure (SMILES)
1,10.6,COC(=O)c1ccccc1S(=O)(=O)N1CCC(=C2c3ccc(Cl)cc3CCc3cccnc32)CC1
2,1,C=CS(=O)(=O)N1CCC(=C2c3ccc(Cl)cc3CCc3cccnc32)CC1
3,4.7,CSCC[C@H](C(=O)N1CCC(=C2c3ccc(Cl)cc3CCc3cccnc32)CC1)N1C(=O)c2ccccc2C1=O
4,> 10,O=C(CNC(c1ccccc1)(c1ccccc1)c1ccccc1)N1CCC(=C2c3ccc(Cl)cc3CCc3cccnc32)CC1
5,> 12,O=[N+]([O-])c1ccc(S(=O)(=O)N2CCC(=C3c4ccc(Cl)cc4CCc4cccnc43)CC2)cc1
6,1.9,CN(C)S(=O)(=O)N1CCC(=C2c3ccc(Cl)cc3CCc3cccnc32)CC1
7,> 11,O=C(O)c1ccccc1S(=O)(=O)N1CCC(=C2c3ccc(Cl)cc3CCc3cccnc32)CC1
8,22.3,NCC(=O)N1CCC(=C2c3ccc(Cl)cc3CCc3cccnc32)CC1
9,13,O=S(=O)(c1cccs1)N1CCC(=C2c3ccc(Cl)cc3CCc3cccnc32)CC1
10,8.2,CC1(C)C2CCC1(CS(=O)(=O)N1CCC(=C3c4ccc(Cl)cc4CCc4cccnc43)CC1)C(O)C2 (centres undefined)
11,6.29,COc1ccc(CSC[C@@H](N)C(=O)N2CCC(=C3c4ccc(Cl)cc4CCc4cccnc43)CC2)cc1
12,> 10,O=C([C@@H](Cc1ccccc1)N1C(=O)c2ccccc2C1=O)N1CCC(=C2c3ccc(Cl)cc3CCc3cccnc32)CC1
13,1.2,O=C(N[C@H](Cc1ccc(O)cc1)C(=O)N1CCC(=C2c3ccc(Cl)cc3CCc3cccnc32)CC1)OCc1ccccc1
14,2,O=C(CN1C(=O)c2ccccc2S1(=O)=O)N1CCC(=C2c3ccc(Cl)cc3CCc3cccnc32)CC1
15,8.4,O=C(Cc1ccccc1)NCC(=O)N1CCC(=C2c3ccc(Cl)cc3CCc3cccnc32)CC1
16,11.4,CC1(C)C2CCC1(CS(=O)(=O)N1CCC(=C3c4ccc(Cl)cc4CCc4cccnc43)CC1)C(=O)C2 (centres undefined)
17,6.8,CC(C)(C)OC(=O)NCC(=O)N1CCC(=C2c3ccc(Cl)cc3CCc3cccnc32)CC1
18,8.8,O=C(NCC(=O)N1CCC(=C2c3ccc(Cl)cc3CCc3cccnc32)CC1)c1ccccc1
